Patent publication US8105993B2, “Process compositions and production of acyl alkylisethionate compositions” (Huntsman Petrochemical LLC, priority 2006, dated 2012)

Columns and labels:
[1] = tested on: Zein; assay: Zein irritation score (in vitro mildness); conditions: the lower the score, the more mild
Description: To evaluate the mildness of the products of the present invention, Zein scores were determined for a variety of sulfate and isethionate surfactants and their scores are reported in Table III:
The lower the Zein score, the more mild the composition.

[2] = levels of 10% by weight; cited from earlier work
[3] = Foaming test, one-liter capped rotating measuring cylinder foam machine; assay type: physicochemical; conditions: FIGS. 1A and 1B; 0.5% active of surfactant; compared with SLES or SLS based cleansers
Description: Foaming tests were performed using a one-liter capped rotating measuring cylinder foam machine at a rate of 30 revolutions per minute and ambient temperature ranging from about 20° C. to about 22° C. and at a concentration of 0.5% of total surfactants. Foam heights in the graduated cylinder were measured at the start and at 10 minutes of rotation. The results are shown below in Table I:
A second foaming test was performed using the same parameters as above, but a stripped coco fatty acid chain SCMI was tested in place of a whole coco fatty acid chain SCMI.

Molecule	Zein Score [1]	skin and eye irritancy [2]	foam appearance [3]
CCCCCCCCCCCC(=O)OC(C)CS(=O)(=O)[O-].[Na+] (centres unmarked) [Sodium Lauroyl Methyl Isethionate]	134 mg N/100 ml solution	–	–
CCCCCCCCCCCCOS(=O)(=O)[O-].[Na+] [Sodium Lauryl Sulfate, sodium lauryl sulfate, reference compound]	527 mg N/100 ml solution	–	–
Sodium Cocoyl Ethyl Isethionate	104 mg N/100 ml solution	–	–
Sodium Lauroyl Ethyl Isethionate	187 mg N/100 ml solution	–	–
sodium cocoyl isethionate [reference compound]	254 mg N/100 ml solution	non-skin irritant and eye irritant	–
sodium cocoyl methyl isethionate	147 mg N/100 ml solution	–	tighter and creamier
